Assay results from patent US20130274352A1, “Oral Drug Devices and Drug Formulations” (The Regents of the University of California, priority 2009, published 2013).
Like-named read-outs stand apart in the source and are kept apart here.

What was measured:
Caco-2 cells [1] = test: Toxicity potential (TP) by MTT assay and synergy (S) of mixtures; format: cell-based, human
Procedure: As used herein “toxicity potential” or “TP” is used to assess the safety of CPEs and refers to the toxicity of one or more CPEs as determined using a Methyl Thiazole Tetrazolium (MTT) kit (American Type Culture Collection, Rockville, Md.). Caco-2 cells were seeded at 10^5 cells/well onto a 96-well plate. Enhancer solutions (100 μl) were applied for 30 minutes. 10 μl of reagent from an MTT kit (American Type Culture Collection, Rockville, Md.) was applied to each well for 5 hours, after which 100 μl of detergent was applied to each well and allowed to incubate in the dark at room temperature for about 40 hours. Absorbance was read at 570 nm (MTT dye) and 650 nm (detergent).
TP values are reported as the fraction of nonviable cells, as compared to the negative control, DMEM. TP values range from 0 to 1, with 0 indicating no mitrochondrial toxicity, and 1 representing maximum toxicity.
As used herein “synergy” or “S” refers to the difference between the linear average of the toxicity of the individual components and the experimentally measured toxicity of the mixture. Synergy was calculated as follows:
S=[X1·TP1+X2·TP2+X3·TP3]−TPmix Eq. 3
where X1, X2, and X3 are the weight fractions of single enhancers 1, 2, and 3, respectively, and TP1, TP2, TP3, and TPmix are the toxicity potentials of pure CPE 1, pure CPE 2, pure CPE 3, and the mixture of CPEs at the corresponding weight fractions X1, X2, and X3. All TP values in the equation above are obtained at the same total concentration. Since TP values can range from 0 to 1, maximum and minimum Synergy values are 1 and −1, respectively.
Caco-2 cells were seeded at 10^5 cells/well onto a 96-well plate. Enhancer solutions (100 μl) were applied for 30 minutes. 10 μl of reagent from an MTT kit (American Type Culture Collection, Rockville, Md.) was applied to each well for 5 hours, after which 100 μl of detergent was applied to each well and allowed to incubate in the dark at room temperature for about 40 hours. Absorbance was read at 570 nm (MTT dye) and 650 nm (detergent). Toxicity potential (TP) values are reported as the fraction of nonviable cells, as compared to the negative control, DMEM. TP values range from 0 to 1, with 0 indicating no mitrochondrial toxicity, and 1 representing maximum toxicity.

Caco-2 cells [2] = test: Calcein entry into epithelial cells, fluorescence microscopy; format: cell-based, human; settings: 0.01% PPS, 0.01% (w/v) calcein
Procedure: A solution containing a permeation enhancer and 0.01% (w/v) calcein dissolved in phosphate buffered saline was applied to Caco-2 cells. After 30 minutes, solutions were removed and replaced with a solution containing only calcein. After 1 hour, samples were washed 3× with phosphate buffered saline and viewed with a Zeiss fluorescence microscope.

[3] = system: Caco-2 cell line (HTB-37)
Procedure: 10 μL of MTT solution (5 mg/mL) was added to each well for 4 h (37° C.), after which 100 μL of 100% DMSO was applied and the plates were incubated for 1 hr with moderate shaking Absorbance was measured at 570 nm using a Tecan Saffire™ fluorescent microplate reader (Tecan Group Ltd, Mannedorf, Switzerland).

Caco-2 monolayer [4] = test: Confocal laser microscopy of FITC-insulin permeation with PPS; format: cell-based, human; settings: 5 hours
Description: Following fixation, cells were gently washed with HBSS, membranes gently removed from the plastic insert, and were mounted on a microscopy slide with DAPI containing cell mounting media (Vectashield® Hardset®, Vector Laboratories, Burlingame, Calif.). All samples were imaged on a confocal microscope (Leica and Olympus Fluoview 500).

Caco-2 monolayers [5] = test: Transwell permeability of sulforhodamine-B or FITC-insulin with PPS; format: cell-based, human
Description: The withdrawn sample was immediately replaced with an equivalent amount of the experimental media.

intestinal epithelium = test: Intestinal tissue histology after PPS; format: in vivo, rat; settings: 0.1% and 1% w/v PPS, 0.5 ml, 5 hrs, SD rats
Procedure: Histological studies were performed to evaluate the possibility of damage caused by PPS in the intestine. […] The sections were stained using hematoxylin-eosin staining and imaged at 50× magnification using an inverted light microscope to determine signs of pathological changes.

Caco-2 monolayers [6] = system: Caco-2 monolayers
Procedure: (§4) Upper filter supports containing viable Caco-2 monolayers were transferred into a 24-well BD Falcon plate and 1 ml of media was dispensed into each basolateral compartment. Solutions containing the CPE (“enhancer solutions”) were applied to the apical compartment and TEER readings were taken at 10 minutes. TEER recovery was assessed by removing enhancer solutions after 30 minutes, applying fresh media, and measuring TEER values at 24 hours.

Caco-2 monolayers [7] = test: TEER over time with PPS (Example 5); format: cell-based, human; settings: for decrease in TEER (% of initial value): 5 hours
Procedure: Caco-2 cell line HTB-37 (ATCC, Rockville, Md.), derived from human colon cells, was used for all experiments. Cells were maintained in DMEM supplemented with 25 IU/ml of penicillin, 25 mg/L of streptomycin, 250 μg/L of amphotericin B and 100 ml/L of fetal bovine serum. Monolayers were grown on BD Biocoat™ HTS collagen filter supports (BD Biosciences, Bedford, Mass.) according to supplier instructions. At the end of the growth period, the integrity of the cell monolayer was confirmed by transepithelial electrical resistance (TEER) measurements (Millicell-ERS voltohmmeter, Millipore, Billerica, Mass.). Only monolayers with TEER values in the range of 150-200 Ω-cm^2 were used for further experimentation.

[8] = Plasma sCT concentration after intestinal injection of sCT with or without PPS; format: in vivo, rat; settings: 1% w/v PPS with sCT 3 mg/kg, SD rats
Procedure: Adult male Sprague-Dawley (SD) rats of 275-300 g, fasted for 7 hours were used for all studies. A midline abdominal incision of 2.5-3.0 cm was made in animals anesthetized by 1.5-3.0% isoflurane to expose the gastrointestinal system. […] Incision was then closed with sterile vicryl […] (muscular), and Vetbond® tissue glue (skin). Blood samples were collected up to 5 hours by tail vein bleeding (heparinized tubes for plasma Calcium, and EDTA tubes for plasma sCT determination), and plasma was separated for analysis of both pharmacodynamic and pharmacokinetic response. Pharmacodynamic response was measured by quantifying plasma calcium levels using a colorimetric calcium assay kit (Sciencell Laboratories, Carlsbad, Calif.); and pharmacokinetic efficacy was tested by quantifying plasma concentrations of salmon calcitonin (sCT) using an extraction-free ELISA kit (Bachem Americas Inc., Torrance, Calif.) following manufacturer's protocols.

Caco-2 monolayers [9] = test: TEER reversibility after PPS exposure; format: cell-based, human; settings: 0.03% w/v PPS for 10 minutes or 1 hour; within 24 hours of removal
Caco-2 monolayer [10] = settings: 0.1% enhancer (total), 10 min
Procedure: The Examples described herein used 1% Triton X-100 as the positive control.
All TEER values were normalized by their initial values.
where TEERCPE and TEER+ are the resistance values (% of initial) of the enhancer solution and positive control solution, respectively, after 10 minutes of exposure. EP lies on a scale of 0 to 1, with 1 representing maximum enhancement as compared to the positive control.
Caco-2 cell line HTB-37 (ATCC, Rockville, Md.), derived from human colon cells, was used for all experiments. Cells were maintained in DMEM supplemented with 25 IU/ml of penicillin, 25 mg/L of streptomycin, 250 ug/L of amphotericin B and 100 ml/L of fetal bovine serum. Monolayers were grown on BD Biocoat™ collagen filter supports (Discovery Labware, Bedford, Mass.) according to supplier instructions. […]
as §4

Caco-2 monolayers [11] = test: Permeability of tritium-labeled mannitol or 70 kDa dextran across Caco-2 monolayers
Procedure: (§1) Solutions containing CPEs and 1 μCi/ml of tritium-labeled mannitol or 70 kDa dextran (American Radiolabeled Chemicals, St. Louis, Mo.) were applied to the apical side of Caco-2 monolayers. Samples were taken from the basolateral compartment every 10 minutes for 1 hour and the radiolabeled contents were analyzed with a scintillation counter (Packard Tri-Carb 2100 TR, Meriden, Conn.).
(§2) where ΔM is the amount of solute transported across the barrier in the time Δt, CM is the concentration of solute in the apical compartment, and Axs is the cross-sectional area of epithelium in contact with the apical solution.
(§3) Positive control experiments were performed on BD Biocoat™ filter supports in the absence of cells.

Caco-2 cells [12] = settings: 0.1% enhancer
Procedure: Enhancer solutions (100 μl) were applied for 30 minutes. 25 μl of the solution was then transferred to a fresh 96-well plate and mixed with 25 μl of LDH reagent from the CytoTox 96® assay (Promega, Madison, Wis.) and allowed to react for 30 minutes in the dark at room temperature. Stop solution (25 μl) was then added to each well, and the absorbance was read at 490 nm. LDH potential (LP) values are reported as the fraction of maximal LDH release, as determined by the positive control lysis solution provided with the assay kit (˜1% Triton-X100).
Equation 5 was used to assess the relative contribution of transcellular and paracellular pathways to permeability of the intestinal epithelium. […] According to Equation 4, the line EP=LP corresponds to enhancers that act predominantly by the transcellular route (paracellular contributions are negligible). Enhancers lying on the vertical EP axis primarily utilize the paracellular pathway, since there is no relationship between EP and LP when transcellular contributions are negligible. The relative contribution of the paracellular pathway is higher for enhancers falling closer to the EP axis than to the EP=LP line.

in vitro = settings: human, Caco-2
Procedure: as §1, §2, §3

B. thailendensis = test: Minimum inhibitory concentration, broth microdilution; format: cell-based; settings: 18 hours, 37° C.
Procedure: Minimum inhibitory concentration against B. thailendensis was determined. Broth microdilution method was followed for MIC determination. Briefly, fresh cultures were grown on the day of experiment using the protocol described below.
Low sodium Leuria-Bertani (LSLB) broth (10 g tryptone 1-1, 5 g yeast extract 1-1, 5 g NaCl 1-1) made in ultrapure water and sterilized via autoclaving (121° C., 15 min) was used for culturing B. thailendensis. Culturing protocol was same as given above for E. coli.
The cultures were adjusted to 5.5×10^5 cfu/ml and used within 30 minutes to minimize change in bacterial counts. Cultures were dispensed in 96-well cell culture polypropylene plates (Corning, Lowell, Mass.) at 90 μl/well. Serial dilutions of test formulations were made at 10× concentration. Inoculums in each well were incubated with 10 μl of test formulation dilutions for 18 hours at 37° C. under humidified conditions. At the end of incubation period, the plates were visibly inspected for bacterial growth. Colonies were counted for selected wells by plating culture dilutions on LSLB plates.

[13] = system: Primary epidermal keratinocyte cultures (HEKa); test: Keratinocyte cytotoxicity (LC50), MTT; format: cell-based, human; settings: HEKa cells
Procedure: Primary epidermal keratinocyte cultures from an adult human source (HEKa) were purchased from Invitrogen Corp (Carlsbad, Calif.) and used for all cytotoxicity experiments. Cells were maintained in a humidified incubator (37° C., 5% CO2), in EpiLife medium with 60 μM calcium and phenol red, supplemented with 10 ml/l human keratinocyte growth supplement, 5 IU/ml penicillin and 5 μg/ml streptomycin. All components of growth media were purchased from Invitrogen Corp (Carlsbad, Calif.). Cells were grown to 70-80% confluence in cell culture flasks (Corning, Lowell, Mass.) as per suppliers' protocols.
At the end of the growth period, keratinocyte cells were seeded at a density of 10^4 cells/well in 96-well tissue culture treated polystyrene plates (Corning, Lowell, Mass.) and incubated overnight to allow cell attachment. Cells were supplied with fresh EpiLife medium (90 μl/well) at the start of experiment, followed by application of test formulations (10 μl/well). The final concentration of test formulations in each well was 0.0001% w/v. This concentration limit was determined based on the LC50 values of component chemicals for HEKa cell line, which were determined in a separate experiment. The cells were incubated with the test formulations for 1 hour. […] The plates were incubated for 16 hours in a humidified environment and absorbance was read at 570 nm.

CCCCCCCCCC[N+](C)(C)C.[Br-] [DTAB, Decyltrimethyl ammonium bromide]
TP (Caco-2 cells [1]; 0.1% enhancer (total), 30 min): 0.56

CCCCCCCCCCCCCCCC[N+](C)(C)CCCS(=O)(=O)[O-] [PPS, Palmityldimethyl ammonio propane sulfonate]
epithelial cells with calcein transport into the cell (Caco-2 cells [2]): more than 75% | cell viability [3]: ~88% | toxicity on Caco-2 cells ([3]; Caco-2): no detectable toxicity | increase of FITC-insulin transport across the monolayer (fluorescence intensity) (Caco-2 monolayer [4]; 0.01% PPS): 1.3 fold | increase of FITC-insulin transport across the monolayer (fluorescence intensity) (Caco-2 monolayer [4]; 0.03% w/v PPS): 3.1 fold | TP (Caco-2 cells [1]; 0.01% (w/v) enhancer, 30 min): 0 | increase in sulforhodamine transport over negative control (Caco-2 monolayers [5]; 0.01% PPS): 1.7 fold | increase in sulforhodamine transport over negative control (Caco-2 monolayers [5]; 0.03% PPS): 2.6 fold | enhancement of FITC-insulin transport (Caco-2 monolayers [5]; 0.03% w/v PPS): 2.3 fold | enhancement of FITC-insulin transport (Caco-2 monolayers [5]; lower concentrations of PPS (0.01% w/v)): did not increase significantly | pathological damage to the intestinal epithelium (intestinal epithelium): no evidences of necrosis or specific inflammation | cell monolayer structure by TEER recovery (Caco-2 monolayers [6]): did not damage cell monolayer structure | decrease in TEER (% of initial value) (Caco-2 monolayers [7]; 0.01% w/v PPS): 50% | decrease in TEER (% of initial value) (Caco-2 monolayers [7]; 0.03% w/v PPS): ~70% | drop in TEER (Caco-2 monolayers [7]; higher concentration (0.03% w/v PPS), 15 minutes): −50% | enhancement of systemic sCT availability based on peak plasma concentrations [8]: 45-50 fold | TEER values returned (% of initial) (Caco-2 monolayers [9]): 90-100%

c1ccc(N2CCNCC2)cc1 [PPZ, Phenyl piperazine]
TP (Caco-2 cells [1]; 0.1% enhancer (total), 30 min): 0.09 | EP (Caco-2 monolayer [10]): 0.95 | increase of 70 kDa dextran permeability (Caco-2 monolayers [11]; enhancer at 0.1%, 70 kDa dextran): > 11 fold | increase of mannitol permeability (Caco-2 monolayers [11]; enhancer at 0.1%, mannitol): more than 14 fold | TEER recovery, % of original value (Caco-2 monolayers [6]; after removal of 0.1% PPZ, within 24 hours): 100% | K (Caco-2 cells [12]): 0.86

CCN(CC)c1ccc2c(-c3ccc(S(=O)(=O)O)cc3S(=O)(=O)[O-])c3ccc(=[N+](CC)CC)cc-3oc2c1 [Sulforhodamine-B]
% Transport (Caco-2 monolayers [5]; PPS 0.01%, 0.15 mg): 3.3 ± 0.4% | Apparent Permeability (Papp) (Caco-2 monolayers [5]; PPS 0.01%, 0.15 mg): 6.0 ± 0.6 10^−6 cm/s | % Transport (Caco-2 monolayers [5]; PPS 0.03%, 0.15 mg): 5.1 ± 0.9% | Apparent Permeability (Papp) (Caco-2 monolayers [5]; PPS 0.03%, 0.15 mg): 9.1 ± 1.6 10^−6 cm/s | % Transport (Caco-2 monolayers [5]; no PPS, 0.15 mg): 1.9 ± 1.3% | Apparent Permeability (Papp) (Caco-2 monolayers [5]; no PPS, 0.15 mg): 3.5 ± 2.3 10^−6 cm/s

OC[C@@H](O)[C@@H](O)[C@H](O)[C@H](O)CO [mannitol, reference compound]
Papp A→B at 1 h, 1 μCi/ml (in vitro): 0.43 ×10⁻⁶ cm/s

FITC-insulin: tracer molecule, FITC-insulin (˜6,000 da)
Apparent Permeability (Papp) (Caco-2 monolayers [5]; Caco-2): 15.6 ± 0.7 10^−6 cm/s

Sodium laureth sulfate [SLA]
TP (Caco-2 cells [1]): 0.88

benzalkoniium chloride [BZK]
MIC (B. thailendensis): 0.00048 % w/v | LC50 [13]: 0.00078 % w/v

dextran [reference compound]
average permeability in the absence of CPEs (Caco-2 monolayers [11]; no CPE, Caco-2 monolayers): 4.9×10^−7±2.3×10^−7

sorbitan monolaurate [S20]
MIC (B. thailendensis): low antibacterial potency | LC50 [13]: negligible toxicity
